Data taken from ChEMBL document CHEMBL3351533, “PASS-assisted design, synthesis and antioxidant evaluation of new butylated hydroxytoluene derivatives” (Eur J Med Chem, 2014).
One block for each compound: values may come before it.

Experiments:
Format in all cases: physicochemical
[1] = Antioxidant activity assessed as DPPH free radical scavenging activity after 60 mins by spectrophotometry
[2] = Antioxidant activity assessed as DPPH free radical scavenging activity at 100 uM after 60 mins by spectrophotometry; conditions: 1 h
[3] = Antioxidant activity assessed as inhibition of lipid peroxidation after 1 hr by TBARS assay
[4] = Antioxidant activity assessed as inhibition of lipid peroxidation at 100 uM after 1 hr by TBARS assay

SMILES: Cc1c(C)c2c(c(C)c1O)CC[C@@](C)(CCC[C@H](C)CCC[C@H](C)CCCC(C)C)O2 [ALPHA-TOCOPHEROL]
IC50 [3]: 5.63 µM | Imax [4]: 84.69%

SMILES: COc1ccc(-n2c(S)nnc2CSCc2cc(C(C)(C)C)c(O)c(C(C)(C)C)c2)cc1
IC50 [1]: 92.7 µM | Imax [2]: 52.94% | IC50 [3]: 2.85 µM | Imax [4]: 86.43%

SMILES: COc1ccc(NC(=S)NNC(=O)CSCc2cc(C(C)(C)C)c(O)c(C(C)(C)C)c2)cc1
IC50 [1]: 50.9 µM | Imax [2]: 76.76% | IC50 [3]: 30.1 µM | Imax [4]: 96.58%

SMILES: CC(C)(C)c1cc(CSCC(=O)O)cc(C(C)(C)C)c1O
IC50 [1]: 96.7 µM | Imax [2]: 51.2% | IC50 [3]: 38.8 µM | Imax [4]: 73.99%

The remaining lines, values ahead:

IC50 [1]: 76.8 µM | Imax [2]: 59.29% | IC50 [3]: 7.98 µM | Imax [4]: 89.84%
SMILES: COc1ccc(Nc2nnc(CSCc3cc(C(C)(C)C)c(O)c(C(C)(C)C)c3)s2)cc1

IC50 [1]: > 100 µM | Imax [2]: 27.83% | IC50 [3]: 38.9 µM | Imax [4]: 76.47%
SMILES: COc1ccccc1-n1c(S)nnc1CSCc1cc(C(C)(C)C)c(O)c(C(C)(C)C)c1

IC50 [1]: 52 µM | Imax [2]: 75.42% | IC50 [3]: 60.5 µM | Imax [4]: 94.75%
SMILES: COc1ccccc1NC(=S)NNC(=O)CSCc1cc(C(C)(C)C)c(O)c(C(C)(C)C)c1

IC50 [1]: 90.8 µM | Imax [2]: 54.69% | IC50 [3]: 13.2 µM | Imax [4]: 89.18%
SMILES: COc1ccccc1Nc1nnc(CSCc2cc(C(C)(C)C)c(O)c(C(C)(C)C)c2)s1

IC50 [1]: > 100 µM | Imax [2]: 25.23% | IC50 [3]: 36.7 µM | Imax [4]: 79.45%
SMILES: Cc1cc(C(C)(C)C)c(O)c(C(C)(C)C)c1 [BUTYLATED HYDROXYTOLUENE]

IC50 [1]: 67.8 µM | Imax [2]: 71.39%
SMILES: O=C1O[C@H]([C@@H](O)CO)C(O)=C1O [ASCORBIC ACID]
